Species on record: Rattus norvegicus
Type: toxicity, organism-based, Sprague-Dawley
Conditions: in vivo, sc, 24 h, route mini-PUMP - SUBCUTANEOUS, time 1 day, vehicle 100 % SALINE; for ABSOLUTE EOSINOPHIL / ABSOLUTE LYMPHOCYTE / ABSOLUTE MONOCYTE / ABSOLUTE SEGMENTED NEUTROPHIL / BASOPHIL / EOSINOPHIL / ERYTHROCYTE COUNT / HEMATOCRIT / HEMOGLOBIN / LEUKOCYTE COUNT / LYMPHOCYTE / MEAN CORPUSCULAR HEMOGLOBIN / MEAN CORPUSCULAR HEMOGLOBIN CONCENTRATION / MEAN CORPUSCULAR VOLUME / MONOCYTE / NEUTROPHIL / NUCLEATED RED BLOOD CELLS / PLATELET COUNT: tissue Blood; for ALANINE AMINOTRANSFERASE / ALBUMIN / ALKALINE PHOSPHATASE / ASPARTATE AMINOTRANSFERASE / BLOOD UREA NITROGEN / CARBON DIOXIDE / CHLORIDE / CHOLESTEROL / CREATININE / GLUCOSE / LACTATE DEHYDROGENASE / LIPASE / PHOSPHORUS / POTASSIUM / SODIUM / TOTAL BILIRUBIN / TOTAL PROTEIN / URIC ACID: tissue Plasma
[1] = 0 mg/kg, vehicle control, dose level Control
[2] = […], dose 0.44 mg/Kg, dose level High

Description: DrugMatrix - Regimen: Single

CNC[C@H](O)c1cccc(O)c1 [PHENYLEPHRINE]
ABSOLUTE EOSINOPHIL [1]: 26.17 CELLS/uL
ABSOLUTE LYMPHOCYTE [1]: 10985.83 CELLS/uL
ABSOLUTE MONOCYTE [1]: 234.5 CELLS/uL
ABSOLUTE SEGMENTED NEUTROPHIL [1]: 1753.5 CELLS/uL
BASOPHIL [1]: 0%
EOSINOPHIL [1]: 0.17%
ERYTHROCYTE COUNT [1]: 5.64 x10E6/uL
HEMATOCRIT [1]: 34.52%
HEMOGLOBIN [1]: 12.68 G/DL
LEUKOCYTE COUNT [1]: 13 x10E3/uL
LYMPHOCYTE [1]: 84.5%
MEAN CORPUSCULAR HEMOGLOBIN [1]: 22.5 pg
MEAN CORPUSCULAR HEMOGLOBIN CONCENTRATION [1]: 36.78 G/DL
MEAN CORPUSCULAR VOLUME [1]: 61.18 fL
MONOCYTE [1]: 1.83%
NEUTROPHIL [1]: 13.5%
NUCLEATED RED BLOOD CELLS [1]: 0.17 /100WBC
PLATELET COUNT [1]: 679.17 x10E3/uL
ALANINE AMINOTRANSFERASE [1]: 42.67 u/L
ALBUMIN [1]: 3.77 G/DL
ALKALINE PHOSPHATASE [1]: 291.17 u/L
ASPARTATE AMINOTRANSFERASE [1]: 74.5 u/L
BLOOD UREA NITROGEN [1]: 15.33 mg/dL
CARBON DIOXIDE [1]: 30 mmol/L
CHLORIDE [1]: 100.83 MEQ/L
CHOLESTEROL [1]: 65.33 mg/dL
CREATININE [1]: 0.15 mg/dL
GLUCOSE [1]: 179.83 mg/dL
LACTATE DEHYDROGENASE [1]: 162.67 u/L
LIPASE [1]: 8.5 u/L
PHOSPHORUS [1]: 12.2 mg/dL
POTASSIUM [1]: 5.73 MEQ/L
SODIUM [1]: 144.7 MEQ/L
TOTAL BILIRUBIN [1]: 0.15 mg/dL
TOTAL PROTEIN [1]: 5.87 G/DL
URIC ACID [1]: 1.93 mg/dL
ABSOLUTE EOSINOPHIL [2]: 0 CELLS/uL
ABSOLUTE LYMPHOCYTE [2]: 12992 CELLS/uL
ABSOLUTE MONOCYTE [2]: 416.33 CELLS/uL
ABSOLUTE SEGMENTED NEUTROPHIL [2]: 3025 CELLS/uL
BASOPHIL [2]: 0%
EOSINOPHIL [2]: 0%
ERYTHROCYTE COUNT [2]: 6.07 x10E6/uL
HEMATOCRIT [2]: 36.37%
HEMOGLOBIN [2]: 13.2 G/DL
LEUKOCYTE COUNT [2]: 16.43 x10E3/uL
LYMPHOCYTE [2]: 79%
MEAN CORPUSCULAR HEMOGLOBIN [2]: 21.77 pg
MEAN CORPUSCULAR HEMOGLOBIN CONCENTRATION [2]: 36.27 G/DL
MEAN CORPUSCULAR VOLUME [2]: 59.93 fL
MONOCYTE [2]: 2.33%
NEUTROPHIL [2]: 18.67%
NUCLEATED RED BLOOD CELLS [2]: 0 /100WBC
PLATELET COUNT [2]: 1118.67 x10E3/uL
ALANINE AMINOTRANSFERASE [2]: 37.33 u/L
ALBUMIN [2]: 3.83 G/DL
ALKALINE PHOSPHATASE [2]: 259 u/L
ASPARTATE AMINOTRANSFERASE [2]: 64.33 u/L
BLOOD UREA NITROGEN [2]: 11.67 mg/dL
CARBON DIOXIDE [2]: 30 mmol/L
CHLORIDE [2]: 101.67 MEQ/L
CHOLESTEROL [2]: 75.67 mg/dL
CREATININE [2]: 0.16 mg/dL
GLUCOSE [2]: 171.33 mg/dL
LACTATE DEHYDROGENASE [2]: 133.67 u/L
LIPASE [2]: 9 u/L
PHOSPHORUS [2]: 14.13 mg/dL
POTASSIUM [2]: 6.67 MEQ/L
SODIUM [2]: 146.87 MEQ/L
TOTAL BILIRUBIN [2]: 0.1 mg/dL
TOTAL PROTEIN [2]: 5.97 G/DL
URIC ACID [2]: 3.6 mg/dL
